Reference: ChEMBL document CHEMBL5316331, “Modulating Cytotoxicity with Lego-like Chemistry: Upgrading Mitochondriotropic Antioxidants with Prototypical Cationic Carrier Bricks” (J Med Chem, 2023)
Activity calls are given as the source filed them. The rule behind the calls is not given here.

Assays:
[1] = tested on: SH-SY5Y; experiment: Cytotoxicity against human SH-SY5Y cells assessed as decrease in lysosomal activity at > 25 uM incubated for 24 hrs by neutral red uptake assay; assay type: toxicity, cell-based
[2] = tested on: SH-SY5Y; experiment: Cytotoxicity against human SH-SY5Y cells assessed as decrease in lysosomal activity at > 50 uM incubated for 24 hrs by neutral red uptake assay; assay type: toxicity, cell-based
[3] = tested on: SH-SY5Y; experiment: Cytotoxicity against human SH-SY5Y cells assessed as decrease in cell mass at > 25 uM incubated for 24 hrs by SRB assay; assay type: toxicity, cell-based
[4] = tested on: HepG2; experiment: Cytotoxicity against human HepG2 cells assessed as decrease in cellular metabolic activity at > 3.1 uM incubated for 24 hrs by resazurin reduction assay; assay type: toxicity, cell-based; settings: hepg2, 24 h
[5] = tested on: HepG2; experiment: Cytotoxicity against human HepG2 cells assessed as decrease in cellular metabolic activity at > 10 uM incubated for 24 hrs by resazurin reduction assay; assay type: toxicity, cell-based; settings: hepg2, 24 h
[6] = tested on: HepG2; experiment: Cytotoxicity against human HepG2 cells assessed as decrease in lysosomal activity at > 3.1 uM incubated for 24 hrs by resazurin reduction assay; assay type: toxicity, cell-based; settings: hepg2, 24 h
[7] = tested on: HepG2; experiment: Cytotoxicity against human HepG2 cells assessed as decrease in lysosomal activity at > 10 uM incubated for 24 hrs by resazurin reduction assay; assay type: toxicity, cell-based; settings: hepg2, 24 h
[8] = tested on: HepG2; experiment: Cytotoxicity against human HepG2 cells assessed as decrease in cell mass at > 6.25 uM incubated for 24 hrs by SRB assay; assay type: toxicity, cell-based; settings: hepg2, 24 h
[9] = tested on: SH-SY5Y; experiment: Cytotoxicity against human SH-SY5Y cells assessed as decrease in cellular metabolic activity at 1 to 100 uM incubated upto 48 hrs by resazurin reduction assay; assay type: toxicity, cell-based; settings: dose 1-100 µM
[10] = tested on: SH-SY5Y; experiment: Cytotoxicity against human SH-SY5Y cells assessed as decrease in lysosomal activity at 1 to 100 uM incubated upto 48 hrs by resazurin reduction assay; assay type: toxicity, cell-based; settings: dose 1-100 µM
[11] = Dissociation constant, pKa of the compound by UV-vis spectrophotometric analysis; assay type: physicochemical
[12] = Drug uptake in C57BL/6J mouse liver mitochondria at 5 uM in presence of rotenone by UPLC analysis; assay type: ADME
[13] = Drug uptake in C57BL/6J mouse liver mitochondria at 5 uM in presence of succinate by UPLC analysis; assay type: ADME
[14] = Drug uptake in C57BL/6J mouse liver mitochondria at 5 uM in presence of FCCP by UPLC analysis; assay type: ADME
[15] = tested on: SH-SY5Y; experiment: Antioxidant activity against human SH-SY5Y cells assessed as increase in proton leak-associated respiration at 10 uM incubated for 24 hrs followed by addition of oligomycin/FCCP/antimycin A /rotenone by Cell Mito stress assay based seahorse XF96 flux analyzer; assay type: functional
[16] = tested on: SH-SY5Y; experiment: Antioxidant activity against human SH-SY5Y cells assessed as effect on intracellular ATP level at 10 uM incubated for 24 hrs followed by addition of oligomycin/FCCP/antimycin A /rotenone by Cell Mito stress assay based seahorse XF96 flux analyzer; assay type: functional
[17] = tested on: SH-SY5Y; experiment: Antioxidant activity against human SH-SY5Y cells assessed as effect on ATP production-linked respiration at 10 uM incubated for 24 hrs followed by addition of oligomycin/FCCP/antimycin A /rotenone by Cell Mito stress assay based seahorse XF96 flux analyzer; assay type: functional
[18] = tested on: SH-SY5Y; experiment: Antioxidant activity against human SH-SY5Y cells assessed as increase in ECAR at 10 uM incubated for 24 hrs followed by addition of oligomycin/FCCP/antimycin A /rotenone by Cell Mito stress assay based seahorse XF96 flux analyzer; assay type: functional
[19] = tested on: SH-SY5Y; experiment: Induction of mitochondrial membrane polarization in human SH-SY5Y cells at 10 uM incubated for 24 hrs by JC-1 staining based fluorescence assay; assay type: functional
[20] = tested on: SH-SY5Y; experiment: Induction of mitochondrial membrane polarization in human SH-SY5Y cells at 50 uM incubated for 24 hrs by JC-1 staining based fluorescence assay; assay type: functional
[21] = tested on: SH-SY5Y; experiment: Effect on cell mitochondrial mass in human SH-SY5Y cells assessed as reduction on mitochondrial mass at 10 uM incubated for 24 hrs by mito-tracker green dye based flow cytometry; assay type: functional; parameters: scale not given: the % may be the effect or the level left
[22] = tested on: SH-SY5Y; experiment: Effect on cell morphology in human SH-SY5Y cells assessed as reduction in cell body at 10 uM incubated for 24 hrs by Phase-contrast microscopy; assay type: functional, cell-based
[23] = tested on: SH-SY5Y; experiment: Effect on cell morphology in human SH-SY5Y cells assessed as reduction in cell body at 50 uM incubated for 24 hrs by Phase-contrast microscopy; assay type: functional, cell-based
[24] = tested on: SH-SY5Y; experiment: Effect on cell morphology in human SH-SY5Y cells assessed as reduction in neurite at 10 uM incubated for 24 hrs by Phase-contrast microscopy; assay type: functional, cell-based
[25] = tested on: SH-SY5Y; experiment: Effect on cell morphology in human SH-SY5Y cells assessed as reduction in neurite at 50 uM incubated for 24 hrs by Phase-contrast microscopy; assay type: functional, cell-based
[26] = tested on: SH-SY5Y; experiment: Effect on cell death pathway in human SH-SY5Y cells assessed as increase in early apoptotic cells at 10 uM incubated for 24 hrs by Annexin V-FITC/PI staining based microscopy; assay type: functional
[27] = tested on: SH-SY5Y; experiment: Effect on cell death pathway in human SH-SY5Y cells assessed as increase in late apoptotic cells at 10 uM incubated for 24 hrs by Annexin V-FITC/PI staining based microscopy; assay type: functional
[28] = tested on: SH-SY5Y; experiment: Effect on cell death pathway in human SH-SY5Y cells assessed as increase in necrotic cells at 10 uM incubated for 24 hrs by Annexin V-FITC/PI staining based microscopy; assay type: functional
[29] = tested on: SH-SY5Y; experiment: Effect on cell death pathway in human SH-SY5Y cells assessed as increase in early apoptotic cells at 50 uM incubated for 24 hrs by Annexin V-FITC/PI staining based microscopy; assay type: functional
[30] = tested on: SH-SY5Y; experiment: Effect on cell death pathway in human SH-SY5Y cells assessed as increase in late apoptotic cells at 50 uM incubated for 24 hrs by Annexin V-FITC/PI staining based microscopy; assay type: functional
[31] = tested on: SH-SY5Y; experiment: Effect on cell death pathway in human SH-SY5Y cells assessed as increase in necrotic cells at 50 uM incubated for 24 hrs by Annexin V-FITC/PI staining based microscopy; assay type: functional
[32] = tested on: SH-SY5Y; experiment: Neuroprotective activity against tBHP-induced human SH-SY5Y cells assessed as increase in cell viability at 10 uM preincubated for 30 mins followed by t-BHP addition at 15 uM and measured after 24 hrs by neutral dye uptake assay relative to control; assay type: functional; settings: time 24.5 hrs
[33] = tested on: SH-SY5Y; experiment: Neuroprotective activity against tBHP-induced human SH-SY5Y cells assessed as increase in cell viability at 10 uM preincubated for 30 mins followed by t-BHP addition at 30 uM and measured after 24 hrs by neutral dye uptake assay relative to control; assay type: functional; settings: time 24.5 hrs
[34] = tested on: SH-SY5Y; experiment: Neuroprotective activity against tBHP-induced human SH-SY5Y cells assessed as increase in cell viability at 10 uM preincubated for 30 mins followed by t-BHP addition and measured after 24 hrs by SRB assay; assay type: functional, cell-based; settings: time 24.5 hrs
[35] = tested on: SH-SY5Y; experiment: Neuroprotective activity against H2O2-induced human SH-SY5Y cells assessed as increase in cell viability at 10 uM preincubated for 30 mins followed by H2O2 addition and measured after 24 hrs by SRB assay; assay type: functional, cell-based; settings: time 24.5 hrs
[36] = Cytotoxicity against human SH-SY5Y cells assessed as cell viability incubated for 24 hrs; assay type: toxicity, cell-based; settings: read-out: Activity
[37] = Cytotoxicity against human HepG2 cells assessed as cell viability incubated for 24 hrs; assay type: toxicity, cell-based; settings: read-out: Activity
[38] = tested on: SH-SY5Y; experiment: Cytotoxicity against human SH-SY5Y cells incubated for 48 hrs; assay type: toxicity, cell-based
[39] = tested on: SH-SY5Y; experiment: Cytotoxicity against human SH-SY5Y cells assessed as increase in cell viability at 10 to 100 uM incubated for 24 hrs; assay type: toxicity, cell-based; settings: dose 10-100 µM
[40] = tested on: HepG2; experiment: Cytotoxicity against human HepG2 cells assessed as increase in cell viability at 10 to 100 uM incubated for 24 hrs; assay type: toxicity, cell-based; settings: hepg2, 24 h, dose 10-100 µM
[41] = tested on: SH-SY5Y; experiment: Antioxidant activity against human SH-SY5Y cells assessed as increase in basal respiration at 10 uM incubated for 24 hrs followed by addition of oligomycin/FCCP/antimycin A /rotenone by Cell Mito stress assay based seahorse XF96 flux analyzer; assay type: functional
[42] = tested on: SH-SY5Y; experiment: Antioxidant activity against human SH-SY5Y cells assessed as increase in maximal respiration at 10 uM incubated for 24 hrs followed by addition of oligomycin/FCCP/antimycin A /rotenone by Cell Mito stress assay based seahorse XF96 flux analyzer; assay type: functional
[43] = tested on: SH-SY5Y; experiment: Antioxidant activity against human SH-SY5Y cells assessed as increase in ATP production-linked respiration at 10 uM incubated for 24 hrs followed by addition of oligomycin/FCCP/antimycin A /rotenone by Cell Mito stress assay based seahorse XF96 flux analyzer; assay type: functional
[44] = tested on: SH-SY5Y; experiment: Antioxidant activity against human SH-SY5Y cells assessed as increase in basal respiration at 50 uM incubated for 24 hrs followed by addition of oligomycin/FCCP/antimycin A /rotenone by Cell Mito stress assay based seahorse XF96 flux analyzer; assay type: functional
[45] = tested on: SH-SY5Y; experiment: Antioxidant activity against human SH-SY5Y cells assessed as increase in maximal respiration at 50 uM incubated for 24 hrs followed by addition of oligomycin/FCCP/antimycin A /rotenone by Cell Mito stress assay based seahorse XF96 flux analyzer; assay type: functional
[46] = tested on: SH-SY5Y; experiment: Antioxidant activity against human SH-SY5Y cells assessed as increase in ATP production-linked respiration at 50 uM incubated for 24 hrs followed by addition of oligomycin/FCCP/antimycin A /rotenone by Cell Mito stress assay based seahorse XF96 flux analyzer; assay type: functional
[47] = tested on: SH-SY5Y; experiment: Antioxidant activity against human SH-SY5Y cells assessed as increase in spare respiratory capacity at 10 uM incubated for 24 hrs followed by addition of oligomycin/FCCP/antimycin A /rotenone by Cell Mito stress assay based seahorse XF96 flux analyzer; assay type: functional
[48] = tested on: SH-SY5Y; experiment: Antioxidant activity against human SH-SY5Y cells assessed as increase in spare respiratory capacity at 50 uM incubated for 24 hrs followed by addition of oligomycin/FCCP/antimycin A /rotenone by Cell Mito stress assay based seahorse XF96 flux analyzer; assay type: functional
[49] = tested on: SH-SY5Y; experiment: Antioxidant activity against human SH-SY5Y cells assessed as increase in basal ECAR at 10 uM incubated for 24 hrs followed by addition of oligomycin/FCCP/antimycin A /rotenone by Cell Mito stress assay based seahorse XF96 flux analyzer; assay type: functional
[50] = tested on: SH-SY5Y; experiment: Antioxidant activity against human SH-SY5Y cells assessed as increase in basal OCR at 10 uM incubated for 24 hrs followed by addition of oligomycin/FCCP/antimycin A /rotenone by Cell Mito stress assay based seahorse XF96 flux analyzer; assay type: functional
[51] = tested on: SH-SY5Y; experiment: Neuroprotective activity against H2O2-induced human SH-SY5Y cells assessed as increase in cell viability at 50 uM preincubated for 30 mins followed by H2O2 addition and measured after 24 hrs by SRB assay; assay type: functional, cell-based; settings: time 24.5 hrs

## CS(=O)(=O)[O-].O=C(/C=C/c1ccc(O)c(O)c1)NCCCCCCCCCC[P+](c1ccccc1)(c1ccccc1)c1ccccc1
[1]
  Activity: Toxic
[2]
  Activity: Toxic
[3]
  Activity: Toxic
[4]
  Activity: Toxic
[5]
  Activity: Toxic
[6]
  Activity: Toxic
[7]
  Activity: Toxic
[8]
  Activity: Toxic
[9]
  Activity: Toxic
[10]
  Activity: Toxic
[11]
  pKa: 8.61
[12]
  Drug uptake: Not Active
[13]
  Drug uptake: ~ 25%
[14]
  Drug uptake: Active
[15]
  Activity: Active
[16]
  Activity: inactive
[17]
  Activity: inactive
[18]
  Activity: Active
[19]
  Activity: 124.8%
[20]
  Activity: 72.7%
[21]
  Activity: 69.2%
[22]
  Activity: Active
[23]
  Activity: Active
[24]
  Activity: Active
[25]
  Activity: Active
[26]
  Activity: Active
[27]
  Activity: Active
[28]
  Activity: Active
[29]
  Activity: Active
[30]
  Activity: Active
[31]
  Activity: Active
[32]
  Activity: 95.1%
[33]
  Activity: 54.9%
[34]
  Activity: Active
[35]
  Activity: inactive

## CS(=O)(=O)[O-].Cc1cc[n+](CCCCCCCCCCNC(=O)/C=C/c2ccc(O)c(O)c2)cc1
[36]
  viability at 24 h: ≥ 85%
[37]
  viability at 24 h: ≥ 85%
[38]
  Activity: Non-Toxic
[39]
  Activity: Non-Toxic
[40]
  Activity: Non-Toxic
[12]
  Drug uptake: Not Active
[13]
  Drug uptake: ~ 25%
[14]
  Drug uptake: Active
[41]
  Activity: Active
[42]
  Activity: Active
[43]
  Activity: Active
[44]
  Activity: Active
[45]
  Activity: Active
[46]
  Activity: Active
[47]
  Activity: Active
[48]
  Activity: Active
[49]
  Activity: Active
[50]
  Activity: Active
[35]
  Activity: inactive
[51]
  Activity: inactive
